Key:
[1] = in water; cited from earlier work
LOX IMVI (Melanoma) = assay: five dose-response growth inhibition/cytotoxicity, LOX IMVI; format: cell-based, human; conditions: for CC50: read-out: LC50 (the source's name)
Experimental: (§1) The preliminary evaluation of compounds 3a-z was carried out at a single dose of 10 μM, against a panel of 60 human tumor cell lines, according to the procedure described by Rubinstein et al., Natl. Cancer. […] The human tumor cell line panel included leukemia, non-small cell lung, colon, central nervous system (CNS), melanoma, ovarian, renal, prostate, and breast cancer cell lines.
(§2) Dose-response curves were created by plotting cytotoxic effect against the log10 of the drug concentration for each cell line. Cytotoxic effects of each compound were determined as GI50 and LC50 values, which represent the molar drug concentration for causing 50% growth inhibition, and the concentration that kills 50% of the cells, respectively.

SR (Leukemia) = assay: five dose-response growth inhibition/cytotoxicity, SR; format: cell-based, human; conditions: for CC50: read-out: LC50 (the source's name)
Experimental: as §1, §2

HCT-116 (Colon Cancer) = assay: five dose-response growth inhibition/cytotoxicity, HCT-116; format: cell-based, human; conditions: for CC50: read-out: LC50 (the source's name)
Experimental: as §1, §2

MDA-MB-435 (Melanoma) = assay: five dose-response growth inhibition/cytotoxicity, MDA-MB-435; format: cell-based, human; conditions: for CC50: read-out: LC50 (the source's name)
Experimental: as §1, §2

M14 (Melanoma) = assay: five dose-response growth inhibition/cytotoxicity, M14; format: cell-based, human; conditions: for CC50: read-out: LC50 (the source's name)
Experimental: as §1, §2

U251 (CNS Cancer) = assay: five dose-response growth inhibition/cytotoxicity, U251; format: cell-based, human; conditions: for CC50: read-out: LC50 (the source's name)
Experimental: as §1, §2

OVCAR-3 (Ovarian Cancer) = assay: five dose-response growth inhibition/cytotoxicity, OVCAR-3; format: cell-based, human; conditions: for CC50: read-out: LC50 (the source's name)
Experimental: as §1, §2

CCRF-CEM (Leukemia) = assay: five dose-response growth inhibition/cytotoxicity, CCRF-CEM; format: cell-based, human; conditions: for CC50: read-out: LC50 (the source's name)
Experimental: as §1, §2

SF-539 (CNS Cancer) = assay: five dose-response growth inhibition/cytotoxicity, SF-539; format: cell-based, human; conditions: for CC50: read-out: LC50 (the source's name)
Experimental: as §1, §2

HCT-15 (Colon Cancer) = assay: five dose-response growth inhibition/cytotoxicity, HCT-15; format: cell-based, human; conditions: for CC50: read-out: LC50 (the source's name)
Experimental: as §1, §2

UACC-62 (Melanoma) = assay: five dose-response growth inhibition/cytotoxicity, UACC-62; format: cell-based, human; conditions: for CC50: read-out: LC50 (the source's name)
Experimental: as §1, §2

[2] = system: leukemia cell lines in the panel; assay: five dose-response growth inhibition, leukemia cell lines in the panel; format: cell-based, human; conditions: all four leukemia cell lines in the panel; read-out: GI50 values in the range
Experimental: as §1, §2

HL-60(TB) (Leukemia) = conditions: for CC50: read-out: LC50
Experimental: as §1, §2

KM-12 (Colon Cancer) = conditions: for CC50: read-out: LC50
[3] = system: NCI/ADR-RES (Ovarian Cancer); assay: five dose-response growth inhibition/cytotoxicity, NCI/ADR-RES; format: cell-based, human; conditions: for CC50: read-out: LC50 (the source's name)
Experimental: as §1, §2

[4] = system: HOP-62 (Non-Small Cell Lung Cancer); assay: five dose-response growth inhibition/cytotoxicity, HOP-62; format: cell-based, human; conditions: for CC50: read-out: LC50 (the source's name)
Experimental: as §1, §2

SK-MEL-5 (Melanoma) = assay: five dose-response growth inhibition/cytotoxicity, SK-MEL-5; format: cell-based, human; conditions: for CC50: read-out: LC50 (the source's name)
Experimental: as §1, §2

K-562 (Leukemia) = assay: five dose-response growth inhibition/cytotoxicity, K-562; format: cell-based, human; conditions: for CC50: read-out: LC50 (the source's name)
Experimental: as §1, §2

[5] = system: DU-145 (Prostrate Cancer); assay: five dose-response growth inhibition/cytotoxicity, DU-145; format: cell-based, human; conditions: for CC50: read-out: LC50 (the source's name)
Experimental: as §1, §2

SF-268 (CNS Cancer) = assay: five dose-response growth inhibition/cytotoxicity, SF-268; format: cell-based, human; conditions: for CC50: read-out: LC50 (the source's name)
Experimental: as §1, §2

[6] = system: HOP-92 non-small cell lung cancer; assay: five dose-response growth inhibition/cytotoxicity, HOP-92; format: cell-based, human; conditions: for CC50: read-out: LC50 (the source's name)
Experimental: as §1, §2

[7] = five dose-response growth inhibition/cytotoxicity, UO-31; format: cell-based, human; conditions: for CC50: read-out: LC50 (the source's name)
Experimental: as §1, §2

MOLT-4 (Leukemia) = assay: five dose-response growth inhibition/cytotoxicity, MOLT-4; format: cell-based, human; conditions: for CC50: read-out: LC50 (the source's name)
Experimental: as §1, §2

[8] = system: three melanoma cell lines; assay: five dose-response growth inhibition, melanoma cell lines; format: cell-based, human; conditions: read-out: GI50 values in the range
Experimental: as §1, §2

[9] = system: panel of 60 human tumor cell lines; assay: single dose (10 μM) evaluation against panel of 60 human tumor cell lines; format: cell-based; conditions: any of the human cancer cell lines in the 60 cell panel
Experimental: as §1

| SMILES | GI50 (LOX IMVI (Melanoma)) | CC50 (LOX IMVI (Melanoma)) | GI50 (SR (Leukemia)) | CC50 (SR (Leukemia)) | GI50 (HCT-116 (Colon Cancer)) | CC50 (HCT-116 (Colon Cancer)) | GI50 (MDA-MB-435 (Melanoma); MDA-MB-435) | CC50 (MDA-MB-435 (Melanoma); MDA-MB-435) | GI50 (M14 (Melanoma)) | CC50 (M14 (Melanoma)) | GI50 (U251 (CNS Cancer)) | CC50 (U251 (CNS Cancer)) | GI50 (OVCAR-3 (Ovarian Cancer)) | CC50 (OVCAR-3 (Ovarian Cancer)) | GI50 (CCRF-CEM (Leukemia)) | CC50 (CCRF-CEM (Leukemia)) | GI50 (SF-539 (CNS Cancer)) | CC50 (SF-539 (CNS Cancer)) | GI50 (HCT-15 (Colon Cancer)) | CC50 (HCT-15 (Colon Cancer)) | other results |
| --- | --- | --- | --- | --- | --- | --- | --- | --- | --- | --- | --- | --- | --- | --- | --- | --- | --- | --- | --- | --- | --- |
| O=C1CC(=O)NC(=S)N1 [2-Thiobarbituric acid] |  |  |  |  |  |  |  |  |  |  |  |  |  |  |  |  |  |  |  |  | pKa [1]: 2.1 |
| COc1ccc(C(=O)n2cc(C=C3C(=O)NC(=S)NC3=O)c3cc(OC)ccc32)cc1 [Compound 3k] | 1.86 µM | ≥ 50 µM | 1.45 µM | 39.4 µM | 1.95 µM | ≥ 50 µM | 0.85 µM | 3.86 µM | 2.03 µM | > 50 µM | 1.93 µM | > 50 µM | 1.26 µM | ≥ 50 µM | 2.23 µM | > 50 µM | 2.56 µM | > 50 µM | 1.8 µM | ≥ 50 µM | GI50 (MDA-MB-435 (Melanoma); melanoma MDA-MB-435): 0.85 µM; GI50 (UACC-62 (Melanoma)): 2.33 µM; CC50 (UACC-62 (Melanoma)): > 50 µM; GI50 [2]: 1.45 to 3.91 µM; GI50 (HL-60(TB) (Leukemia)): 3.91 µM; CC50 (HL-60(TB) (Leukemia)): > 50 µM; GI50 (KM-12 (Colon Cancer)): 1.99 µM; CC50 (KM-12 (Colon Cancer)): ≥ 50 µM; GI50 [3]: 2.91 µM; CC50 [3]: > 50 µM; GI50 [4]: 3.12 µM; CC50 [4]: > 50 µM; GI50 (SK-MEL-5 (Melanoma)): 2.31 µM; CC50 (SK-MEL-5 (Melanoma)): > 50 µM; GI50 (K-562 (Leukemia)): 2.55 µM; CC50 (K-562 (Leukemia)): > 50 µM; GI50 [5]: 2.41 µM; CC50 [5]: > 50 µM; GI50 (SF-268 (CNS Cancer)): 2.65 µM; CC50 (SF-268 (CNS Cancer)): > 50 µM |
| COc1ccc2c(c1)c(C=C1C(=O)NC(=S)NC1=O)cn2C(=O)c1ccccc1Br [Compound 3s] | 2.92 µM | 47.9 µM | 2.55 µM | > 100 µM | 3.76 µM | > 100 µM | 1.77 µM | 8.43 µM | 3.52 µM | > 100 µM | 3.09 µM | 42.1 µM | 2.77 µM | 33.1 µM | 4 µM | > 100 µM | 3 µM | 57.8 µM | 3.83 µM | 89.9 µM | GI50 (UACC-62 (Melanoma)): 3.38 µM; CC50 (UACC-62 (Melanoma)): 39.6 µM; GI50 [2]: 2.55 to 4 µM; GI50 (HL-60(TB) (Leukemia)): 3.24 µM; CC50 (HL-60(TB) (Leukemia)): > 100 µM; GI50 (KM-12 (Colon Cancer)): 3.87 µM; CC50 (KM-12 (Colon Cancer)): 51.9 µM; GI50 [3]: 3.23 µM; CC50 [3]: > 100 µM; GI50 [4]: 3.59 µM; CC50 [4]: 64.3 µM; GI50 (SK-MEL-5 (Melanoma)): 3.47 µM; CC50 (SK-MEL-5 (Melanoma)): > 50 µM; GI50 (K-562 (Leukemia)): 3.8 µM; CC50 (K-562 (Leukemia)): > 100 µM; GI50 [5]: 3.01 µM; CC50 [5]: 53.6 µM; GI50 (SF-268 (CNS Cancer)): 3.86 µM; CC50 (SF-268 (CNS Cancer)): 52.2 µM |
| O=C1NC(=S)NC(=O)C1=Cc1cn(C(=O)c2cccc3ccccc23)c2ccccc12 [Compound 3t] | 3.59 µM | 55.6 µM | 2.74 µM | 92.3 µM | 2.9 µM | > 100 µM | 1.91 µM | 9.23 µM | 3.22 µM | > 100 µM | 3.58 µM | 50.7 µM | 2.46 µM | 46.2 µM | 3.35 µM | > 100 µM | 3.68 µM | 58.6 µM | 3.6 µM | > 100 µM | GI50 [6]: 1.3 µM; CC50 [6]: 44.8 µM; GI50 [7]: 3.93 µM; CC50 [7]: > 100 µM; GI50 [2]: 2.74 to 3.71 µM; GI50 (HL-60(TB) (Leukemia)): 3.36 µM; CC50 (HL-60(TB) (Leukemia)): > 100 µM; GI50 [3]: 2.59 µM; CC50 [3]: > 100 µM; GI50 [4]: 1.3 µM; CC50 [4]: 44.8 µM; GI50 (MOLT-4 (Leukemia)): 3.49 µM; CC50 (MOLT-4 (Leukemia)): 79 µM; GI50 (K-562 (Leukemia)): 3.71 µM; CC50 (K-562 (Leukemia)): > 100 µM |
| COc1ccc2c(c1)c(C=C1C(=O)NC(=S)NC1=O)cn2C(=O)c1cccc2ccccc12 [Compound 3w] | 3.8 µM | > 100 µM | 3.32 µM | > 100 µM | 3.35 µM | > 100 µM | 2.01 µM | 12 µM | 1.91 µM | > 100 µM | 3.23 µM | > 100 µM | 2.38 µM | 20.9 µM | 3.31 µM | > 100 µM | 2.3 µM | > 100 µM | 3.1 µM | > 100 µM | GI50 [8]: 1.91 to 3.8 µM; GI50 [6]: 1.09 µM; CC50 [6]: ≥ 100 µM; GI50 [7]: 3.72 µM; CC50 [7]: > 100 µM; GI50 [2]: 3.31 to 3.95 µM; GI50 (HL-60(TB) (Leukemia)): 3.47 µM; CC50 (HL-60(TB) (Leukemia)): > 100 µM; GI50 [3]: 3.14 µM; CC50 [3]: > 100 µM; GI50 [4]: 1.09 µM; CC50 [4]: > 100 µM; GI50 (MOLT-4 (Leukemia)): 3.95 µM; CC50 (MOLT-4 (Leukemia)): > 100 µM; GI50 (K-562 (Leukemia)): 3.52 µM; CC50 (K-562 (Leukemia)): > 100 µM |
| O=C1NC(=S)NC(=O)C1=Cc1cn(C(=O)c2ccc3ccccc3c2)c2ccccc12 [Compound 3x] |  |  |  |  |  |  |  |  |  |  |  |  |  |  |  |  |  |  |  |  | cytotoxic potency against the 60 cell panel [9]: not identified as potent cytotoxic agents |
| COc1ccc2c(c1)c(C=C1C(=O)NC(=S)NC1=O)cn2C(=O)c1ccc2ccccc2c1 [Compound 3z] |  |  |  |  |  |  |  |  |  |  |  |  |  |  |  |  |  |  |  |  | cytotoxic potency against the 60 cell panel [9]: not identified as potent cytotoxic agents |

— patent US9597316B2, “Indole compounds for use in treating inflammation and cancer” (BIOVENTURES LLC, priority 2012, dated 2017)
